Laboratory results as given in patent US6458347B1, “Drug complex” (Asahi Kasei Kabushiki Kaisha, priority 1996, dated 2002).
Read-outs that look alike come from different tables or passages of the source.

Assays:
[1] = serum, 37° C.; serum species and time not stated
Protocol: Each of compounds (24), (26), (28) and (30) (drug complexes) obtained in Example 8 was dissolved in physiological saline so that the concentration thereof in terms of dexamethasone was 80 μg/ml, to thereby obtain four solutions. 50 μl of each of the above-obtained four solutions was individually added to each of 250 μl of mouse serum and 250 μl of human serum, and the amounts of dexamethasone released from the respective compounds at 37° C. were determined as follows.
The recovery and quantitative analysis of dexamethasone in serum were conducted as follows: 250 μl of phosphate buffer (pH 7.4) was added to […] of each of the sera to which the above-mentioned solution was added, to thereby obtain a mixture. To the obtained mixture was added 3 ml of a solution of hydrocortisone acetate (as an internal standard for the below-mentioned HPLC analysis, the concentration of hydrocortisone acetate: 10 ng/ml) in a mixture of acetonitrile and methanol (acetonitrile/methanol=4/1) and subjected to centrifugation (3,000 rpm, 10 minutes, 4° C.). To 700 μl of the resultant supernatant was added 700 µl of distilled water, to thereby obtain a mixture. The obtained mixture was subjected to filtration with a membrane filter (pore size 0.2 μm), and the resultant filtrate was used as a sample for the quantitative analysis of dexamethasone by HPLC under the following conditions. […]
Column: Asahipak […] C18 (4.6×150 mm)
Column temperature: room temperature
The detected wavelength: 254 nm
Mobile phase: Linear gradient
0 min.: 20% aqueous acetonitrile (20% CH3CN/H2O)
20 min.: 50% aqueous acetonitrile (50% CH3CN/H2O)

[2] = Dissolution in physiological saline; format: physicochemical; details: 1 mg in 10 ml of physiological saline
B16 melanoma cells [3] = details: 50 mg/kg in terms of paclitaxel, intravenous, six days after administration; paclitaxel 50 mg/kg
Protocol: Further, a control solution was prepared by dissolving paclitaxel per se into a mixture of ethanol, Cremophore EL (manufactured and sold by Sigma, U.S.A.) and physiological saline. Thus, four types of solutions, namely, three different types of test sample solutions and one control solution were obtained.
Twenty-eight female C57BL/6 mice (six weeks old) were divided into four groups, each consisting of seven mice, and subsequently, B16 melanoma cells were intradermally transplanted to the groin of each of the mice (5×10^6 cells per mouse). After eight days from the transplantation, the above-mentioned four types of solutions were administered to the transplanted mice at the tails thereof intravenously so that the mice belonging to the same group received the administration of the same type of solution. […] With respect to the control solution, the dose of paclitaxel was 50 mg/kg.
(§1) Separately, a group consisting of thirteen mice, which were transplanted with B16 melanoma cells in the same manner as mentioned above, was provided. Each of the mice of such group received the administration of physiological saline, to thereby obtain a non-treated group of mice.
The tumor volume was determined as follows. The external major and minor diameters (a and b, respectively) (each in mm) of the tumor were measured, and the tumor volume (V) was obtained according to the following formula. [formula]

colon 26 tumor cells = details: 50 mg/kg in terms of paclitaxel, intravenous, repeated every 4 days; paclitaxel 50 mg/kg
Protocol: (§2) Further, a control solution was prepared by dissolving paclitaxel per se into a mixture of ethanol, Cremophore EL (manufactured and sold by Sigma, U.S.A.) and physiological saline.
(§3) With respect to the control solution, the dose of paclitaxel was 50 mg/kg.
Each of the mice of such group received the administration of only physiological saline in the same manner as in the case of the administration of the test sample solution, to thereby obtain a non-treated group of mice.
Evaluation was made of the antitumor activity in terms of the change (with the lapse of time) of the average tumor volume (%).
(§4) The tumor volume was determined as follows. […] [formula]

B16 melanoma cells [4] = details: 50 mg/kg in terms of paclitaxel, intravenous, six days after administration; paclitaxel 50 mg/kg; remark: listed apart in the source
Protocol: as §2, §3, §1, §4

Row | Molecule | dexamethasone introduced into the compound that was released [1] | antitumor activity (relative average tumor volume) as compared to paclitaxel per se (B16 melanoma cells [3]) | also measured
1 | CCC(=O)NCC(=O)OCC(=O)[C@@]1(O)[C@H](C)C[C@H]2[C@@H]3CCC4=CC(=O)C=C[C@]4(C)[C@@]3(F)[C@@H](O)C[C@@]21C [compound (26), 21-propanoylglycyl-dexamethasone] | approximately 95% | – | –
2 | CCC(=O)N[C@@H](C)C(=O)OCC(=O)[C@@]1(O)[C@H](C)C[C@H]2[C@@H]3CCC4=CC(=O)C=C[C@]4(C)[C@@]3(F)[C@@H](O)C[C@@]21C [compound (28), 21-propanoylalanyl-dexamethasone] | approximately 70% | – | –
3 | CCC(=O)OCC(=O)[C@@]1(O)[C@H](C)C[C@H]2[C@@H]3CCC4=CC(=O)C=C[C@]4(C)[C@@]3(F)[C@@H](O)C[C@@]21C [compound (30), 21-propanoyl-dexamethasone] | ≥ 98% | – | –
4 | CC(=O)O[C@H]1C(=O)[C@@]2(C)[C@H]([C@H](OC(=O)c3ccccc3)[C@]3(O)C[C@H](OC(=O)[C@H](O)[C@@H](NC(=O)c4ccccc4)c4ccccc4)C(C)=C1C3(C)C)[C@]1(OC(C)=O)CO[C@@H]1C[C@@H]2O [paclitaxel] | – | – | dissolution of paclitaxel per se [2]: could not be dissolved completely
5 | CCC(=O)N[C@H](C(=O)OCC(=O)[C@@]1(O)[C@H](C)C[C@H]2[C@@H]3CCC4=CC(=O)C=C[C@]4(C)[C@@]3(F)[C@@H](O)C[C@@]21C)[C@@H](C)CC [compound (24), 21-propanoylisoleucyl-dexamethasone] | ≤ 10% | – | –
6 | carboxymethylated dextran-2′-Ile-paclitaxel [compound (15)] | – | relatively weak | –
7 | carboxymethylated dextran-2′-Gly-paclitaxel [compound (3)] | – | significantly excellent | –
8 | carboxymethylated dextran-2′-Gly-Gly-Phe-Gly-paclitaxel [compound (33)] | – | – | antitumor activity (change of average tumor volume with time) as compared to paclitaxel per se (colon 26 tumor cells): significantly excellent; antitumor activity (relative average tumor volume) as compared to paclitaxel per se (B16 melanoma cells [4]): significantly excellent
9 | carboxymethylated dextran-2′-Ala-paclitaxel [compound (7)] | – | excellent | –
